Test results published in patent US12616698B2, “Methods for reducing liver fat and for treating fatty liver disorders” (Corcept Therapeutics Incorporated, priority 2021, dated 2026).
Marks after values point to notes of the source that are not given here.

Tested on: patients presumed to have NASH
Test: Phase 2a study in patients with presumed NASH: liver fat by MRI-PDFF
Format: in vivo, human
From the text: A Phase 2a, randomized, double-blind, placebo-controlled study (ClinicalTrials.gov Identifier: NCT03823703) was begun to assess the efficacy of two dose levels of miricorilant versus placebo in reducing liver fat in patients who were presumed to have non-alcoholic steatohepatitis (NASH), that presumption based on blood tests and noninvasive measures. Written informed consent was obtained before initiating any study-mandated procedures. The full study was planned to enroll approximately 120 patients, randomized 1:1:1 to receive daily 900 mg miricorilant:600 mg miricorilant: matching placebo.
Patients enrolled in the study were required to have consistent liver enzyme (ALT and AST) baseline measurements (established by two samples obtained at least 4 weeks and no more than six months apart), and a diagnosis of presumed NASH with fibrosis defined as meeting all of the following criteria: • a. Either: i) a historical liver biopsy within 1 year of Screening showing NASH, NAFLD Activity Score (NAS) greater than or equal to 4, and F1 to F3 fibrosis, or ii) an AST level greater than 17 U/L for women or AST level greater than 20 U/L for men AND a FibroScan liver stiffness measurement of greater than or equal to 8.5 kPa and a Controlled Attenuation Parameter (CAP) of greater than or equal to 300 dB/m in the 3 months prior to Screening or at Screening; • b. A MRI-PDFF with greater than or equal to 10% steatosis; and • c. The presence of two or more components of metabolic syndrome: type 2 diabetes treatment or fasting blood glucose greater than or equal to 126 mg/dL, BMI greater than or equal to 30 kg/m^2, hypertension treatment or blood pressure greater than or equal to 130/85, history of dyslipidemia, or waist circumference greater than or equal to 102 cm (40 in) in men and greater than or equal to 88 cm (35 in) in women.
Measures of the effectiveness of miricorilant versus placebo in reducing liver fat were assessed by magnetic resonance imaging (MRI). The change from baseline MRI measurements relative to MRI measurements taken following a course of daily miricorilant or placebo administration were assessed by magnetic resonance imaging-proton density fat fraction (MRI-PDFF). Additionally, effects of miricorilant may be assessed by measuring one or more of the following, either by comparing change from baseline after one or more days of miricorilant administration, or by comparing measurements in patients administered miricorilant versus patients administered placebo: change in liver fat assessed by MRI-PDFF; change in AST, ALT, and gamma-glutamyl transferase (GGT); change in propeptide of type III collagen (pro-C3); change in enhanced liver fibrosis (ELF) score and its components (hyaluronic acid, tissue inhibitor of metalloproteinases-1 [TIMP-1], type III procollagen [PIIINP]); change in ACTH, serum cortisol, and serum aldosterone (pharmacodynamic assessments); change in Homeostatic Model Assessment of Insulin Resistance (HOMA-IR); change in absolute body weight; and other measurements. […] For patients with diabetes, change in HbA1c and change in fasting blood glucose may be measured to assess the effects of miricorilant. Change in blood pressure may be measured in patients with high blood pressure to assess the effects of miricorilant. Pharmacokinetic (PK) parameters were estimated from steady state plasma concentrations of miricorilant.
Patients were randomized in a 1:1:1 ratio to 600 mg miricorilant, 900 mg miricorilant, or placebo. Study drug was administered once daily, orally with 8 oz (240 mL) of water, along with food. Patients were instructed to take a total of 6 tablets at approximately the same time each day. Those in the 600 miricorilant group took 4 miricorilant tablets and 2 placebo tablets. Those in the 900 miricorilant group took 6 miricorilant tablets. Those in the placebo group took 6 placebo tablets. […]

[1] = one patient, 600 mg per day, MRI-PDFF 26 days after cessation of study drug
[2] = patient 208-4020, 900 mg daily, 30 days on study drug, MRI 19 days after dose ended
[3] = patient 211-4002, 900 mg daily, 31 days on study drug, MRI 64 days after dose ended
[4] = patient 214-4007, 900 mg daily, 44 days on study drug, MRI 16 days after dose ended
[5] = patient 232-4016, 600 mg daily, 39 days on study drug, MRI 26 days after dose ended
[6] = patient 233-4018, 600 mg daily, 34 days on study drug, MRI 21 days after dose ended

## O=c1[nH]c(=O)c(Cc2cccc(C(F)(F)F)c2)c([C@H]2CC[C@H](c3ccccc3)CC2)[nH]1 [miricorilant, (E)-6-(4-Phenylcyclohexyl)-5-(3-trifluoromethylbenzyl)-1H-pyrimidine-2,4-dione]
30 or 34 days of treatment, two of five patients administered miricorilant
  Liver fat levels: normalized
Found in four patients (Table 3)
  Liver fat reductions: greater than 30%
One patient (233-4018, 600 mg) of the four with liver fat decreases
  Resolution of fatty liver (MRI-PDFF <5%): *complete resolution of fatty liver (MRI-PDFF <5%)
[1]
  MRI PDFF value increase as compared to baseline: 5
  Relative increase in liver fat from baseline: 27.9%
[2]
  % Change in liver fat: −65.3%
  Change in MRI PDFF: −11.5
Patient 208-4020, 900 mg daily, 30 days on study drug, MRI 19 days after dose ended, screening value 17.6
  MRI PDFF value: 6.1
Patient 208-4020, 900 mg, 30 days on treatment
  Relative change from baseline in % liver fat: −65.3%
Patient 208-4020, 900 mg, 30 days on treatment, baseline 17.6
  Liver fat Follow-up: 6.1%
[3]
  % Change in liver fat: −38.5%
  Change in MRI PDFF: −10.7
Patient 211-4002, 900 mg daily, 31 days on study drug, MRI 64 days after dose ended, screening value 27.8
  MRI PDFF value: 17.1
Patient 211-4002, 900 mg, 31 days on treatment
  Relative change from baseline in % liver fat: −38.5%
Patient 211-4002, 900 mg, 31 days on treatment, baseline 27.8
  Liver fat Follow-up: 17.1%
[4]
  % Change in liver fat: −47.0%
  Change in MRI PDFF: −13.3
Patient 214-4007, 900 mg daily, 44 days on study drug, MRI 16 days after dose ended, screening value 28.3
  MRI PDFF value: 15.0
Patient 214-4007, 900 mg, 44 days on treatment
  Relative change from baseline in % liver fat: −47.0%
Patient 214-4007, 900 mg, 44 days on treatment, baseline 28.3
  Liver fat Follow-up: 15.0%
[5]
  % Change in liver fat: +27.9%
  Change in MRI PDFF: 5.0
Patient 232-4016, 600 mg daily, 39 days on study drug, MRI 26 days after dose ended, screening value 17.9
  MRI PDFF value: 22.9
[6]
  % Change in liver fat: −73.8%
  Change in MRI PDFF: −9.3
Patient 233-4018, 600 mg daily, 34 days on study drug, MRI 21 days after dose ended, screening value 12.6
  MRI PDFF value: 3.3
Patient 233-4018, 600 mg, 34 days on treatment
  Relative change from baseline in % liver fat: −73.8%
Patient 233-4018, 600 mg, 34 days on treatment, baseline 12.6
  Liver fat Follow-up: 3.3* %
Patient with the greatest reduction, 600 mg daily, baseline 12.6%
  Mean liver fat content after treatment (FIG. 3C): 3.3%
